Here are results for 26 compounds from patent publication US20240083861A1, “HSD17B13 INHIBITORS AND USES THEREOF” (FL2022-001, Inc., priority 2020, published 2024).

Molecules are shown by their SMILES. Where only a bound is given, the exact number is not on record here.

For one assay, the target named is T1, Recombinant human HSD17B13 enzyme (Homo sapiens, UniProt Q7Z5P4).
T1 sequence (Q7Z5P4 20-300): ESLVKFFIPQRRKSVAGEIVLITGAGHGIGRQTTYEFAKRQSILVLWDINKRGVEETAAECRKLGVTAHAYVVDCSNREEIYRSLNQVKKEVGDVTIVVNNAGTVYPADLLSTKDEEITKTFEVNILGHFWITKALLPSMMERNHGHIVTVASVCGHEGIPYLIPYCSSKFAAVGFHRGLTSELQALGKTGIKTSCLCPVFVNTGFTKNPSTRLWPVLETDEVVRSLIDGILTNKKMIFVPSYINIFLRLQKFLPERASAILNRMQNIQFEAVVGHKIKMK
The experiment in a line: HSD17b13 NAD(P)H-Glo biochemical assay. To be noted: 50 uM estradiol, 1 mM NAD+, NAD(P)H-Glo luminescence; read-out: HSD17β13 IC50. Here is the method:
Example B-1: HSD17b13 NAD(P)H-Glo Biochemical Assay
Recombinant human HSD17B13 enzyme. Substrate: estradiol (Sigma β-Estradiol E8875), 100 mM in DMSO. Cofactor: NAD+ Grade I free acid (Sigma 10127965001), 20 mM in H2O. Assay buffer final concentration: 20 mM Tris pH7.4 with 0.002% Tween-20 and 0.02% BSA. Assay performed in 384 well solid bottom plate (Corning 3570). Enzymatic activity detected by NAD(P)H-Glo™ Detection System (Promega G9062).
Inhibitor compounds were serially diluted in DMSO and then further diluted in assay buffer to a 10× concentration consisting of 1% DMSO.
HSD17b13 enzyme was diluted in 1× assay buffer to the desired enzyme concentration based on the specific activity of the enzyme lot. 20 uL of diluted enzyme was added to each well along with 2.5 uL of 10× inhibitor solution. Assay plate was incubated at RT for 20 minutes, and then 2.5 uL of a 10× substrate/cofactor mix was added to each well for a final concentration of 50 uM estradiol and 1 mM NAD+. Assay plate was incubated at 37° C. for 3 hours. NAD(P)H-Glo™ Detection System reagents were prepared according to manufacturer's specifications, and 25 uL was added to each well. After incubating for 1 hour at RT, luminescence was measured.
For the compound `Cn1nc(-c2cc(C(F)(F)F)c(F)c(O)c2F)c2cnc(N3CC(C)(C#N)C3)cc21` [Compound 9.08, 1-(3-(2,4-Difluoro-3-hydroxy-5-(trifluoromethyl)phenyl)-1-methyl-1H-pyrazolo[4,3-c]pyridin-6-yl)-3-methylazetidine-3-carbonitrile], the IC50 was less than 100 nM. Same read-out and setting: to `Cn1nc(-c2cc(C(F)(F)F)c(F)c(O)c2F)c2cnc(N3CCN(S(C)(=O)=O)CC34CC4)nc21` [Compound 9.122, 2,6-Difluoro-3-(1-methyl-6-(7-(methylsulfonyl)-4,7-diazaspiro[2.5]octan-4-yl)-1H-pyrazolo[3,4-d]pyrimidin-3-yl)-5-(trifluoromethyl)phenol] belongs less than 100 nM; to `Cn1nc(-c2cc(C(F)(F)F)c(F)c(O)c2F)c2cnc(N3CCOCC3C3CC3)cc21` (centres unmarked) [Compound 9.38, 3-(6-(3-Cyclopropylmorpholino)-1-methyl-1H-pyrazolo[4,3-c]pyridin-3-yl)-2,6-difluoro-5-(trifluoromethyl)phenol], less than 100 nM. As for `Cn1nc(-c2cc(C(F)(F)F)c(F)c(O)c2F)c2cc(F)c(N3CCOCC34CC4)nc21` [Compound 9.81, 2,6-Difluoro-3-(5-fluoro-1-methyl-6-(7-oxa-4-azaspiro[2.5]octan-4-yl)-1H-pyrazolo[3,4-b]pyridin-3-yl)-5-(trifluoromethyl)phenol], the IC50 is less than 100 nM.

As to `Cn1nc(-c2cc(C(F)(F)F)c(F)c(O)c2F)c2nnc(N3CCOCC34CC4)cc21` [Compound 9.138, 2,6-Difluoro-3-(1-methyl-6-(7-oxa-4-azaspiro[2.5]octan-4-yl)-1H-pyrazolo[4,3-c]pyridazin-3-yl)-5-(trifluoromethyl)phenol], the IC50 was less than 100 nM. The same measure, in the same setting: to `Cn1nc(-c2cc(C(F)(F)F)c(F)c(O)c2F)c2cnc(N3CCCC(O)C3)nc21` (centres unmarked) [Compound 18.05, 1-(3-(2,4-Difluoro-3-hydroxy-5-(trifluoromethyl)phenyl)-1-methyl-1H-pyrazolo[3,4-d]pyrimidin-6-y1)piperidin-3-ol] belongs less than 100 nM. On to `Cn1nc(-c2cc(C(F)(F)F)c(F)c(O)c2F)c2cnc(N3CCN(C4CC4)C(=O)C3)nc21` [Compound 18.21, 1-Cyclopropyl-4-(3-(2,4-difluoro-3-hydroxy-5-(trifluoromethyl)phenyl)-1-methyl-1H-pyrazolo[3,4-d]pyrimidin-6-y1)piperazin-2-one], for which the IC50 was less than 100 nM. For the compound `Oc1c(F)c(-c2nn(C3CCOCC3)c3cc(N4CCOCC45CC5)ncc23)cc(C(F)(F)F)c1F` [Compound 9.54, 3-(6-(7-Oxa-4-azaspiro[2.5]octan-4-yl)-1-(tetrahydro-2H-pyran-4-yl)-1H-pyrazolo[4,3-c]pyridin-3-yl)-2,6-difluoro-5-(trifluoromethyl)phenol], the IC50 is less than 100 nM. Still for that read-out and setting: to `Cn1nc(-c2cc(C(F)(F)F)c(F)c(O)c2F)c2cnc(N3CCOC(c4ccncc4)C3)nc21` (centres unmarked) [Compound 18.56, 2,6-Difluoro-3-(1-methyl-6-(2-(pyridin-4-y1)morpholino)-1H-pyrazolo[3,4-d]pyrimidin-3-y1)-5-(trifluoromethyl)phenol] belongs less than 100 nM.

Turning to `C[C@@H]1COCCN1c1cc2c(cn1)c(-c1cc(C(F)(F)F)c(F)c(O)c1F)nn2C` [Compound 9.30, (R)-2,6-Difluoro-3-(1-methyl-6-(3-methylmorpholino)-1H-pyrazolo[4,3-c]pyridin-3-yl)-5-(trifluoromethyl)phenol], the IC50 is less than 100 nM. In the case of `Cn1nc(-c2cc(C(F)(F)F)c(F)c(O)c2F)c2cnc(N3CCC(N4CCOCC4)CC3)nc21` [Compound 18.60, 2,6-Difluoro-3-(1-methyl-6-(4-morpholinopiperidin-1-yl)-1H-pyrazolo[3,4-d]pyrimidin-3-y1)-5-(trifluoromethyl)phenol], the IC50 was in the range of 100 to 1000 nM. Regarding `CN1CCN(c2ncc3c(-c4cc(C(F)(F)F)c(F)c(O)c4F)nn(C)c3n2)CC1` [Compound 18.72, 2,6-Difluoro-3-(1-methyl-6-(4-methylpiperazin-1-yl)-1H-pyrazolo[3,4-d]pyrimidin-3-y1)-5-(trifluoromethyl)phenol], the IC50 lay within 100 to 1000 nM. Same read-out and setting: under `CS(=O)(=O)N1CCN(c2cc3[nH]nc(-c4cc(C(F)(F)F)cc(O)c4F)c3cn2)CC1` [Compound 11.02, 2-Fluoro-3-(6-(4-(methylsulfonyl)piperazin-1-yl)-1H-pyrazolo[4,3-c]pyridin-3-yl)-5-(trifluoromethyl)phenol] stands 100 to 1000 nM; under `O=C(NC1CCCC1)c1ccc2oc(-c3cc(C(F)(F)F)c(F)c(O)c3F)nc2c1` [Compound 1.22, N-Cyclopentyl-2-(2,4-difluoro-3-hydroxy-5-(trifluoromethyl)phenyl)benzo[d]oxa-zole-5-carboxamide], less than 100 nM. Take `CN(c1cc2c(cn1)c(-c1cc(C(F)(F)F)c(F)c(O)c1F)nn2C)C1CCOC1` (centres unmarked) [Compound 9.27, 2,6-Difluoro-3-(1-methyl-6-(methyl(tetrahydrofuran-3-yl)amino)-1H-pyrazolo[4,3-c]pyridin-3-yl)-5-(trifluoromethyl)phenol]: the IC50 lay within 100 to 1000 nM. The same measure, in the same setting: to `CCC1COCCN1c1cc2c(cn1)c(-c1cc(C(F)(F)F)c(F)c(O)c1F)nn2C` (centres unmarked) [Compound 9.45, 3-(6-(3-Ethylmorpholino)-1-methyl-1H-pyrazolo[4,3-c]pyridin-3-yl)-2,6-difluoro-5-(trifluoromethyl)phenol] belongs less than 100 nM; to `Cn1nc(-c2cc(C(F)(F)F)c(F)c(O)c2F)c2cnc(N3CCOC4(CCCC4)C3)cc21` [Compound 9.132, 2,6-Difluoro-3-(1-methyl-6-(6-oxa-9-azaspiro[4.5]decan-9-yl)-1H-pyrazolo[4,3-c]pyridin-3-yl)-5-(trifluoromethyl)phenol], less than 100 nM. As to `Cn1nc(-c2cc(C(F)(F)F)c(F)c(O)c2F)c2cnc(N3CCOC(c4nnn[nH]4)C3)nc21` (centres unmarked) [Compound 18.50, 3-(6-(2-(1H-Tetrazol-5-yl)morpholino)-1-methyl-1H-pyrazolo[3,4-d]pyrimidin-3-y1)-2,6-difluoro-5-(trifluoromethyl)phenol], the IC50 fell in the range of 1000 to 30000 nM.

In the case of `CN(C)CC1CCN(c2ncc3c(-c4cc(C(F)(F)F)c(F)c(O)c4F)nn(C)c3n2)CC1` [Compound 18.34, 3-(6-(4-((Dimethylamino)methyl)piperidin-1-y1)-1-methyl-1H-pyrazolo[3,4-d]pyrimidin-3-y1)-2,6-difluoro-5-(trifluoromethyl)phenol], the IC50 is 100 to 1000 nM. Same read-out and setting: to `CN(c1cc2[nH]nc(-c3cc(C(F)(F)F)c(F)c(O)c3F)c2cn1)C1CCOCC1` [Compound 11.04, 2,6-Difluoro-3-(6-(methyl(tetrahydro-2H-pyran-4-yl)amino)-1H-pyrazolo[4,3-c]pyridin-3-yl)-5-(trifluoromethyl)phenol] belongs less than 100 nM. Take `O=C(c1ccc2oc(-c3cc(O)c(F)c(F)c3)nc2c1)N1CCOCC1` [Compound 1.06, (2-(3,4-Difluoro-5-hydroxyphenyl)benzo[d]oxazol-5-yl)(morpholino)methanone]: the IC50 lay in the range of 100 to 1000 nM. `O=C(NC12CC(O)(C1)C2)c1ccc2oc(-c3cc(O)c(F)c(C(F)(F)F)c3)nc2c1` [Compound 1.11, 2-(4-Fluoro-3-hydroxy-5-(trifluoromethyl)phenyl)-N-(3-hydroxybicyclo[1.1.1]pentan-1-yl)benzo[d]oxazole-5-carboxamide]: the concentration for half-maximal inhibition (IC50) lay in the range of 100 to 1000 nM. On to `O=C(NC12CC(C1)C2)c1ccc2oc(-c3cc(C(F)(F)F)cc(O)c3F)nc2c1` [Compound 1.12, N-(Bicyclo[1.1.1]pentan-1-yl)-2-(2-fluoro-3-hydroxy-5-(trifluoromethyl)phenyl)benzo[d]oxa-zole-5-carboxamide], for which the IC50 was less than 100 nM.

Turning to `Cn1nc(-c2cc(C(F)(F)F)c(F)c(O)c2F)c2cnc(N3CCC4(CC3)CNC4=O)nc21` [Compound 18.25, 7-(3-(2,4-Difluoro-3-hydroxy-5-(trifluoromethyl)phenyl)-1-methyl-1H-pyrazolo[3,4-d]pyrimidin-6-yl)-2,7-diazaspiro[3.5]nonan-1-one], the concentration for half-maximal inhibition (IC50) was less than 100 nM. Turning to `CNC(=O)N1CCN(c2ncc3c(-c4cc(C(F)(F)F)c(F)c(O)c4F)nn(C)c3n2)CC12CCC2` [Compound 20.01, 8-(3-(2,4-Difluoro-3-hydroxy-5-(trifluoromethyl)phenyl)-1-methyl-1H-pyrazolo[3,4-d]pyrimidin-6-yl)-N-methyl-5,8-diazaspiro[3.5]nonane-5-carboxamide], the IC50 was less than 100 nM.

The assay is the same for the next values; noted with them: at 10 uM compound; read-out: HSD17β13 % inhibition at 10 uM.
As for `CS(=O)(=O)N1CCN(c2ccc3oc(-c4cc(C(F)(F)F)c(F)c(O)n4)nc3c2)CC1` [Compound 7.02, 3-Fluoro-6-(5-(4-(methylsulfonyl)piperazin-1-yl)benzo[d]oxazol-2-yl)-4-(trifluoromethyl)pyridin-2-ol], the inhibition at 10 µM was determined as 40%.

By IC50 is commonly meant the concentration at which inhibition is half-maximal. A word on the inhibition: it is the relative decrease from the control value, in per cent.
